From patent publication US11590154B2, “Triple antibiotic fixed-dose combination products, dosing regimen, methods, and kits for treating pulmonary non-tuberculosis mycobacterial infections” (priority 2020, dated 2023)
Entries after “also recorded” stand apart in the source; their conditions may differ. Like-named read-outs stand apart in the source and are kept apart here.

Experiments:
[1] = system: MAC bacteria; assay type: cell-based, Mycobacterium avium complex; details: 2×MIC; starting inoculum 5.5 log10 CFU/ml
Protocol: In vitro, efficacy was studied in static time-kill kinetics assays (at 2×minimum inhibitory concentration [MIC]), intended to mirror a desired peak serum concentration for all three antibiotics using an established assay. All experiments were performed with a starting inoculum of 5.5 log10 CFU/ml MAC bacteria, higher than the bacterial load expected in the airway secretions of patients with mild nodular-bronchiectatic disease due to MAC.

[2] = system: MAC; assay: MIC of the MAC strains used in the HFS-MAC studies; assay type: cell-based, Mycobacterium avium complex; details: Mycobacterium avium
Protocol: The MAC strain used in the HFS-MAC studies was ATCC strain 700898. The study center also had 5 well-characterized clinical strains that have undergone whole-genome sequencing and habituation to the HFS-MAC. Stock cultures of MAC were stored at −80° C. in Middlebrook 7H9 broth with 10% OADC and 10% glycerol. THP-1 monocytes were stored in liquid nitrogen and have been habituated for the HFS-MAC growth conditions.

[3] = system: intracellular MAC in THP-1 monocytes; assay: Hollow fiber system model of MAC (HFS-MAC): microbial kill; assay type: cell-based, Mycobacterium avium complex; details: HF experiments
Protocol: The anti-mycobacterial effects of CLR, CFZ, and RFB was evaluated in the hollow fiber system model of MAC (HFS-MAC), which recapitulates the intrapulmonary concentrations of these antibiotics. The HFS-MAC allows for an assessment of the contribution of individual drug components in terms of anti-mycobacterial effects and enables exploration of potential synergy, additivity, or antagonism of different doses of drugs and combination regimens on the log-phase growth of intracellular MAC, for both microbial kill and resistance suppression.
A two-part investigation was conducted to assess the contribution of components of various FDC products comprising CLR, CFZ, and RFB in terms of depth and rate of MAC kill and suppression of the emergence of resistance. The anti-MAC activity of each antibiotic component was evaluated as one-drug alone; as two-drug combinations and the three-drug combination. For each combination (singlet, doublet or triplet), the drug concentrations were sampled from the HF fluid bathing MAC-infected cells. […] Anti-MAC activity was evaluated by kill slopes defined as the kill rate constant (and the half-life of kill [reciprocal of the kill rate constant]) as well as the maximum kill, defined as the maximum reduction in MAC CFUs and compared between the different antibiotic combinations.
MAC was grown into log-phase for 4 days, parallel with cultivation of THP-1 monocytes. The THP-1 cells were then infected with MAC overnight at a multiplicity of infection of 1:1. The THP-1 cells were washed to remove extracellular bacteria, and 20 mL of 1×10^6 (6.0 log10) cells/mL were inoculated into each HFS-MAC on Study Day 0. The peripheral compartment is the abluminal hollow fibers space that is also enclosed by the plastic, while the intraluminal space and flow path form the central compartment. […]

[4] = system: M. avium; assay: MIC of antibiotics by broth microdilution, M. avium strains of Examples 3 and 4; assay type: cell-based, Mycobacterium avium subsp. hominissuis; details: 7H10 agar plates for tissue CFU counts
Protocol: Susceptibility testing was conducted using broth microdilution single and twofold dilutions as described in the literature. Suspensions were prepared by swabs on a growth plate with a sterile cotton swab, or were prepared in broth culture. The growth was transferred to a 4.5 mL of phosphate buffer solution (PBS) until the turbidity matched the density of a 0.5 McFarland standard. Suspensions were then vigorously mixed on a vortex mixer for 15 to 20 seconds. The final inoculum was prepared to a bacterial density of 10^5. The tube was inverted 8-10 times to mix the suspension.
Following both the four-week and eight-week treatment period, mice were sacrificed, and lungs and spleens were harvested for CFU counts in each tissue and compared to CFUs recovered in the baseline and vehicle-treated groups. Tissue samples were plated with and without antibiotic on 7H10 agar. Antibiotic plates were made with minimum inhibitory concentrations (MICs) of 8 μg/ml for clarithromycin, and 0.25, μg/ml for both rifabutin (RFB) and clofazimine (CFZ). Plates were made for each of clarithromycin (CLR) alone, clarithromycin plus either rifabutin (CLR+RFB) or clofazimine (CLR+CFZ) and the three-drug combination (CLR+RFB+CFZ). All plates were incubated in a microbiological incubator at 37° C. for 14 days.

[5] = system: M. avium 104 biofilm; assay: In vitro biofilm model of infection; assay type: cell-based, Mycobacterium avium subsp. hominissuis; details: mean ± SD; CLR 1.9-4.3 μg/mL, RFB 0.04 μg/mL, CFZ 0.0005 μg/mL
[6] = system: MAC; assay: Lung histopathology of mice infected with MAC and treated for four and eight weeks; assay type: in vivo, Mycobacterium avium complex; details: 32 sections per group
Source text: Lung and Spleen Histopathology of Mice Infected with MAC and Treated with FDC Components Alone and in Combination for Four and Eight Weeks of Treatment
Each of the experimental group had eight cut examined from each lung (8×2 lungs=16×2 mice=32 sections). Lungs were normal and not showing any pathology at pre-infection.

[7] = 7-day mouse tolerability and PK study; details: for Cavg (clofazimine): AUCtlast/24 h; for AUC(0-t): AUCtlast (clofazimine); for AUC(0-t) / Cmax: mouse plasma; for Cmax: Cmax (clofazimine)
Protocol: Sixty (60) female mice were tested, 12 per treatment groups: […]

[8] = Concentration vs. QTcF analysis of MAP Study data (linear mixed-effects model); assay type: in vivo, human
Protocol: A concentration vs. QTcF analysis was performed on a subset of data from the MAP Study where the PK sample was drawn within 1 hour of ECG extraction. The rationale for this window was based primarily on the assumption that at least for the rifabutin and clofazimine components, the long half-life would result in modest fluctuation of concentration over the dosing interval and thus the concentrations used in the analysis would enable fitting of a linear model suitable for prediction of the effect at the maximum concentration for each component (Cmax). Initially, a full model (including clarithromycin, 14-OH-clarithromycin, rifabutin, 25-O-desacetyl-rifabutin, and clofazimine) with random intercept and slopes per subject was fit and an unstructured covariance structure was used. […] Several models were then assessed with the best model retained, where only clofazimine concentration was retained as the drug component predictor of QT response.
The relationship between the individually observed clofazimine plasma concentrations and estimated placebo-adjusted ΔQTcF (i.e., ΔΔQTcF) is shown in FIG. 9. The solid line and the dotted line denotes the model-predicted mean ΔΔQTcF with 90% CI. The squares and circles denote the pairs of observed clofazimine plasma concentrations and estimated placebo-adjusted ΔQTcF by subjects for the RHB-104 and placebo treatment groups, respectively. […]

[9] = system: NTM; details: mouse models of systemic and lung infection; preclinical literature; cited from earlier work
[10] = cited from earlier work; for airway concentration relative to plasma (ELF:plasma ratio as percent): Dheda et al. 2018
[11] = female, C57BL/6, mouse, plasma, po, 10 mg/kg, Day 1, CFZ 10 mg/kg alone, oral
[12] = female, C57BL/6, mouse, plasma, po, 10 mg/kg, Day 7, CFZ 10 mg/kg alone, oral once daily
[13] = female, C57BL/6, mouse, plasma, po, 30 mg/kg, Day 1, CFZ 30 mg/kg alone, oral
[14] = female, C57BL/6, mouse, plasma, po, 30 mg/kg, Day 7, CFZ 30 mg/kg alone, oral once daily
[15] = female, C57BL/6, mouse, plasma, po, 30 mg/kg, Day 7, CFZ 30 mg/kg with CLR 200 mg/kg and RFB 60 mg/kg, oral once daily

CC(C)/N=c1\cc2n(-c3ccc(Cl)cc3)c3ccccc3nc-2cc1Nc1ccc(Cl)cc1 [Clofazimine, clofazimine]
activity as single drugs [1]: bacteriostatic activity | MIC ([2]; Clinical strain #1): 0.25 µg/mL | MIC ([2]; Clinical strain #2): 0.25 µg/mL | MIC ([2]; Clinical strain #3): 0.25 µg/mL | MIC ([2]; Clinical strain #4): 0.25 µg/mL | MIC ([2]; Clinical strain #5): 0.25 µg/mL | effect on CFUs / MAC killing, summary [3]: CFU counts increased | minimum inhibitory concentrations (MICs) used for antibiotic plates [4]: 0.25 µg/mL | Colony Forming Unit Concentration, Four Days [5]: 1.91 ± 0.6 × 10^7 CFU/mL | Colony Forming Unit Concentration, Seven Days [5]: 1.42 ± 0.5 × 10^7 CFU/mL | Lung Histopathology Findings [6]: Mild diffuse congestion; also recorded: Minimal multi-focus congestion of lymphocytes and plasma cells; also recorded: Granulomas in multiple locations with mild number of bacteria; also recorded: Infiltrates into the bronchiolar walls | Cavg (clofazimine) ([7]; Day 7, CFZ 10 mg/kg alone): 223 ng/mL | Cavg (clofazimine) ([7]; Day 7, CFZ 30 mg/kg alone): 411 ng/mL | Cavg (clofazimine) ([7]; Day 7, CFZ 30 mg/kg with CLR 200 mg/kg and RFB 60 mg/kg): 829 ng/mL | Tmax ([7]; female, C57BL/6, mouse, in vivo, po, 10 mg/kg, tmax (clofazimine)): 4 h | AUC(0-t) ([7]; female, C57BL/6, mouse, in vivo, po, 30 mg/kg, Day 1, CFZ 30 mg/kg with CLR 200 mg/kg and RFB 60 mg/kg, oral): 2230 ng·h/mL | AUC(0-t) [7, 11]: 2150 ng·h/mL | AUC(0-t) [7, 12]: 5340 ng·h/mL | Cmax [7, 11]: 108 ng/mL | Cmax [7, 12]: 277 ng/mL | AUC(0-t) [7, 13]: 3690 ng·h/mL | AUC(0-t) [7, 14]: 9870 ng·h/mL | AUC(0-t) [7, 15]: 19900 ng·h/mL | Cmax [7, 13]: 181 ng/mL | Cmax ([7]; female, C57BL/6, mouse, plasma, po, 30 mg/kg, Day 1, CFZ 30 mg/kg with CLR 200 mg/kg and RFB 60 mg/kg, oral): 152 ng/mL | Cmax [7, 14]: 460 ng/mL | Cmax [7, 15]: 957 ng/mL | treatment effect-specific intercept ([8]; 90% CI 0.76 to 4.29): 2.52 ms | estimated population slope of the concentration-QTc relationship ([8]; clofazimine plasma concentration, RHB-104 MAP Study, 90% CI 0.0337 to 0.0410): 0.037 ms per ng/mL | Effective Dose [9]: 20 mg/kg/day | airway concentration relative to plasma (ELF:plasma ratio as percent) [10]: approximately 0.19% | airway concentration relative to plasma (ELF:plasma ratio as percent) ([10]; listed as CFZ): approximately 0.2% | ELF:plasma ratio ([10]; epithelial lining fluid to total plasma/serum): 0.0019 | half-life ([10]; human, in vivo): > 100 days
